The record followed here is patent US6864285B1, “Covalent derivatives of alkanolamides of monocarboxylic and dicarboxylic acids functionally active on the CB2 cannabinoid receptor” (Innovet Italia S.r.l., priority 1999, dated 2005).

Values after ≈ are worked out from the molar mass of the structure shown. Bounds are passed on as bounds.

Data set [1] can be described thus: Lipid/water partition parameter RM from thin-film chromatography on silica gel. The note with it: for ΔRM solvent 1 / RM solvent 1 / RF solvent 1: Solvent 1: 100% ethyl acetate; for ΔRM solvent 1 / ΔRM solvent 2: RM of derivative minus RM of corresponding alkanolamide; for RM solvent 1 / RM solvent 2: RM=log (1/Rf−1); for RF solvent 1 / RF solvent 2: silica gel; for ΔRM solvent 2 / RM solvent 2 / RF solvent 2: Solvent 2: heptane:isopropanol:ethyl acetate:H2O 40:20:50:2. The class given is physicochemical. As to the method:
The chemical and physical characteristics of the derivatives according to the invention were evaluated by quantitative measurement of the lipid/water partition parameter.
A useful parameter for evaluating the properties of a compound in relation to its possible absorption is in fact constituted by the coefficient of partition between the lipid phase and the aqueous phase, which is considered to be an expression of its lipophilicity and its degree of hydrophilicity. […] For the purpose of evaluating the characteristics of the derivatives of the invention, the partition parameter RM between the lipid and the aqueous phase, extrapolated from thin-film partition chromatography, was calculated; this parameter is commonly used to evaluate the lipophilic characteristics of compounds (Tomlinson E. J. Chromatogr. 1975, 113, 1) and is commonly used, for example, for local anaesthetics, in which a correlation has been shown between this parameter and biological activity (Bachrata M. et al. J. Chromatogr. 1979, 171, 29-36).
The partition parameter RM between the lipid phase and the aqueous phase was calculated both for the derivatives and for the non-substituted alkanolamides, from the Rf value obtained by thin-film chromatography on silica gel (particles of […], mean porosity 60 Å, thickness 0.25 mm on glass plate) in accordance with the formula: RM=log (1/Rf−1) and the ΔRM was obtained from the difference between the RM coefficients of the derivative and of the corresponding alkanolamide.

Data set [2] is described as follows: Solubility in water and in organic solvents (chemical and physical characteristics). The note with it: for solubility in water: in words.
Data set [3] addresses T1, CB2 receptor (Rattus norvegicus, UniProt Q9QZN9).
T1 construct: endogenous in cells; host or cells: rat RBL-2H3+ leukemic basophilic cells
T1 sequence (Q9QZN9 1-360): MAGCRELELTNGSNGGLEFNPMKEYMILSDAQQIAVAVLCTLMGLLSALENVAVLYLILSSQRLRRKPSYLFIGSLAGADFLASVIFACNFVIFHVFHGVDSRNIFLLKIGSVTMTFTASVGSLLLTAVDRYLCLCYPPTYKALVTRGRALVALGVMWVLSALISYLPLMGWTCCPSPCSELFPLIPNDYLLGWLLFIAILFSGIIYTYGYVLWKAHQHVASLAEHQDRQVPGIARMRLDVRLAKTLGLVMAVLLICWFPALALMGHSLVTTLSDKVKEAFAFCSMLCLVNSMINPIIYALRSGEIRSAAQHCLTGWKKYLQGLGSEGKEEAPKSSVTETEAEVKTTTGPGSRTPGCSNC
Nature of the data set: Binding of [3H]WIN55,212-2 to membranes of RBL-2H3+ cells. The note with it: cell membranes, 300 pM ligand, 90' at 30° C.; read-out: Ki CB2 receptor RBL-2H3 + cells Lig. [3H]WIN55, 212-2. From the text: (§1) Effect of alkanolamide molecules on the binding of the synthetic ligands of the CB2 and CB1 cannabinoid receptors, respectively.
(§2) Rat RBL-2H3+ leukemic basophilic cells, which selectively express the cannabinoid CB2 receptor, and mouse N18TG2 neuroblastoma cells which selectively express the CB1 cannabinoid receptor were used. The cells were cultivated as described above (Facci L. et al. (1995) Proc. Natl: Acad: Sci. U.S.A. 92:: 3376-3380; Bisogno T. et al. 1997 J. Biol. Chem., 272: 3315-3323). WIN 55,212.2 was used as the selectively agonist synthetic ligand for the CB2 receptor.
HU-210 was used as the selective […] for the CB2 receptor.
(§3) [^3H]SR141716A (55 Ci/mmol) was supplied by Amersham; [^3H]WIN55,212-2 (43 Ci/mmol) was supplied by NEN. The binding tests were performed with membranes of the cells resuspended in 50 mMol Tris pH 7.0 buffer; 2.5 mMol MgCl2, 0.8 mMol EDTA; 0.05% bovine serum albumin (BSA); 0.01% ethanol, in the presence of 100 μM of phenyl-methyl-sulphonyl fluoride (PMSF-Sigma), with the use, of 300 pM of [^3H]SR141716A and of [^3H]WIN55,212-2, respectively, as the ligand.
(§4) The membranes were incubated for 90′ at 30° C. and filtered on glass microfibre filters (GFC-Whatman) and the radioactivity was detected by liquid scintillation. The specific binding was calculated with the use of either 10 μM SR141716A or 10 μM HU-210.
(§5) The Ki values were calculated by Chang-Prusoff's equation and expressed as concentration μM.

For data set [4], the target named is T2, CB1 receptor (Mus musculus, UniProt P47746).
T2 construct: endogenous in cells; host or cells: mouse N18TG2 neuroblastoma cells
Put plainly: Binding of [3H]SR141716A to membranes of N18TG2 cells. The note with it: cell membranes, 300 pM ligand, 90' at 30° C.; read-out: Ki CB1 Receptor N18TG2 cells Lig. [3H]SR141716A.
Source text: as §1, §2
SR141716A was used as the selective antagonist for the CB1 receptor.
as §3, §4, §5

Data set [5] in a line: physchem.
The mark [6] stands for this setting: ethanol, organic solvent or mixture.
The mark [7] stands for this setting: ethyl acetate, organic solvent or mixture.
[8] abbreviates: n-octanol, organic solvent or mixture.

T2 sequence (P47746 whole entry): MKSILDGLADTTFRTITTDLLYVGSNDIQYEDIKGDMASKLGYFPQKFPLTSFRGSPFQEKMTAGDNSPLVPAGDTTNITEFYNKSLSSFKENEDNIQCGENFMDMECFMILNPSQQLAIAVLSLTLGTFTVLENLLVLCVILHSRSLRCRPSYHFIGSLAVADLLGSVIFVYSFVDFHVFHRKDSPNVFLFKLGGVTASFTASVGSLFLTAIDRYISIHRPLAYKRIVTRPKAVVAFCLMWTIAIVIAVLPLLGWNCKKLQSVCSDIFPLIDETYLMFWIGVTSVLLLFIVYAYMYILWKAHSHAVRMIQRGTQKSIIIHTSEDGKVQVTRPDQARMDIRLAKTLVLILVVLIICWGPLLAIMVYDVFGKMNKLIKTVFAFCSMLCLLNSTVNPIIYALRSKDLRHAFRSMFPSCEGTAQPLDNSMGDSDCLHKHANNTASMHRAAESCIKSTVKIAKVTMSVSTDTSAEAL

Consider `CCCCCCCCCCCCCCCC(=O)NCCOC(=O)NCc1ccccc1` [Example 5], for which, in data set [1], the “ΔRM solvent 1” value is −0.736, the “RM solvent 1” value amounted to 0.052, the “RF solvent 1” value was 0.47 and the “ΔRM solvent 2” value is reported as −0.304. In addition, in data set [1], the “RM solvent 2” value is −0.269 and the “RF solvent 2” value is 0.65. In addition, the “solubility in organic solvents: ethyl acetate, hot” value in data set [2] (ethyl acetate, hot) is 10 mg/ml in ethyl. Further, the solubility in water result in data set [2] is reported as “slightly soluble”. For the same compound, the “solubility in organic solvents: n-octanol, hot” value in data set [2] (n-octanol, hot) amounted to 10 mg/ml in ethyl.

Consider `CCCCCCCCCCCCCCCC(=O)NCCOC(=O)OCCN1CCCCC1` [Example 7, N-[2-[(2-piperidinoethoxy)carbonyl]oxyethyl] hexadecanamide], for which, in data set [1], the “ΔRM solvent 1” value is 0.49, the “RM solvent 1” value is on record as 1.28 and the “RF solvent 1” value worked out at 0.05. In addition, the Ki (usually the equilibrium dissociation constant of an inhibitor or competing ligand from its target) in data set [3] is 0.009 ± 0.0025 µM. Moreover, in data set [4], the Ki is over 15 µM. Further, the solubility (commonly how much of the substance goes into solution per volume) in data set [5] (setting [6]) was found to be 10000 µg/mL (≈ 22 mM). Moreover, the solubility in water entry in data set [2] is reported as “slightly soluble”.

In the case of `CCCCCCCCCCCCCCCC(=O)NCCOC(=O)OCC` [Example 1, N-[2-(ethoxycarbonyl)oxyethyl]hexadecanamide], in data set [1], the “ΔRM solvent 1” value is reported as −1.001, the “RM solvent 1” value is −0.213, the “RF solvent 1” value is 0.62 and the “ΔRM solvent 2” value is −0.403. In data set [1], the “RM solvent 2” value is reported as −0.368 and the “RF solvent 2” value stood at 0.70. Also, the Ki in data set [3] came out at 0.006 ± 0.0018 µM. In data set [4], the Ki was over 15 µM. Besides, the solubility in data set [5] (setting [6]) worked out at 10000 µg/mL (≈ 26.9 mM). Also, the solubility in data set [5] (setting [7]) was determined as 10000 µg/mL (≈ 26.9 mM). In data set [5] (setting [8]), the solubility is 10000 µg/mL (≈ 26.9 mM). Moreover, the solubility in water entry in data set [2] is on record as “slightly soluble”.

Regarding `CCCCCCCCCCCCCCCC(=O)NCCOC(=O)OCCN1CCCCC1.CS(=O)(=O)O` [Example 8, N-[2-[(2-piperidinoethoxy)carbonyl]oxyethyl] hexadecanamide methane sulphonate], the solubility is 10000 µg/mL in data set [5] (DMSO, organic solvent or mixture); 10000 µg/mL in data set [5] (setting [6]); 10000 µg/mL in data set [5] (water).

For the compound `CCCCCCCCCCCCCCCC(=O)NCCCOC(=O)OCC` [Example 3, N-[3-(ethoxycarbonyl)oxypropyl]hexadecanamide], in data set [1], the “ΔRM solvent 1” value is recorded as −1.020, the “RM solvent 1” value was −0.194, the “RF solvent 1” value worked out at 0.61 and the “ΔRM solvent 2” value is reported as −0.397. Also, in data set [1], the “RM solvent 2” value is recorded as −0.327 and the “RF solvent 2” value is listed as 0.68. The solubility in data set [5] (setting [6]) came to 10000 µg/mL (≈ 25.9 mM). The solubility in data set [5] (setting [7]) is 10000 µg/mL (≈ 25.9 mM). Besides, in data set [5] (setting [8]), the solubility worked out at 10000 µg/mL (≈ 25.9 mM). In data set [2], the solubility in water result is listed as “slightly soluble”.

In the case of `O=C(CCCCCCCC(=O)NCCOC1CCCCO1)NCCOC1CCCCO1` (centres unmarked) [Example 12, tetrahydropyranyl ether of N,N^1-bis(2-hydroxyethyl) nonandiamide], in data set [1], the “ΔRM solvent 1” value is reported as −0.494, the “RM solvent 1” value is recorded as −0.105, the “RF solvent 1” value amounted to 0.56 and the “ΔRM solvent 2” value was −0.706. In data set [1], the “RM solvent 2” value is listed as −0.017 and the “RF solvent 2” value worked out at 0.51. Further, the “solubility in organic solvents: ethanol” value in data set [2] is 10 mg/ml in ethanol.

With `CCCCCCCCCCCCCCCC(=O)NCCOC1CCCCO1` (centres unmarked) [Example 11, tetrahydropyranyl ether of N-(2-hydroxyethyl) hexadecanamide], in data set [1], the “ΔRM solvent 1” value turned out to be 0.666, the “RM solvent 1” value amounted to 0.122, the “RF solvent 1” value is on record as 0.43 and the “ΔRM solvent 2” value is reported as −0.304. Also, in data set [1], the “RM solvent 2” value was −0.269 and the “RF solvent 2” value stood at 0.65. Also, in data set [2] (ethyl acetate), the “solubility in organic solvents: ethyl acetate” value turned out to be 10 mg/ml in ethyl. Also, the solubility in water entry in data set [2] is “slightly soluble”. In data set [2] (n-octanol), the “solubility in organic solvents: n-octanol” value worked out at 10 mg/ml in ethyl.

Regarding `O=C(CCCCCCCC(=O)NCCOC1CCCO1)NCCOC1CCCO1` (centres unmarked) [Example 10, tetrahydrofuranyl ether of N,N^1-bis(2-hydroxyethyl) nonandiamide], in data set [1], the “ΔRM solvent 1” value is −0.424, the “RM solvent 1” value is listed as −0.035, the “RF solvent 1” value turned out to be 0.52 and the “ΔRM solvent 2” value is on record as −0.584. Further, in data set [1], the “RM solvent 2” value came to 0.105 and the “RF solvent 2” value was 0.44. For the same compound, the “solubility in organic solvents: ethanol” value in data set [2] was determined as 10 mg/ml in ethanol.

`CCCCC1C(=O)N(c2ccccc2)N(c2ccccc2)C1=O` [phenyl butazone, reference compound]: the Ki in data set [3] and in data set [4] was over 15 µM each time.

For the compound `CCCCCCCCCCCCCCCC(=O)NCCOC1CCCO1` (centres unmarked) [Example 9, tetrahydrofuranyl ether of N-(2-hydroxyethyl) hexadecanamide], in data set [1], the “ΔRM solvent 1” value was −0.630, the “RM solvent 1” value turned out to be 0.158, the “RF solvent 1” value was found to be 0.41 and the “ΔRM solvent 2” value is −0.247. In data set [1], the “RM solvent 2” value is −0.213 and the “RF solvent 2” value is 0.62. In data set [2], the “solubility in organic solvents: ethanol” value stood at 10 mg/ml in ethanol and the solubility in water result is “slightly soluble”.

On to `CCCCCCCC/C=C\CCCCCCCC(=O)NCCOC(=O)OCC` [Example 13, N-[2-(ethoxycarbonyl)oxyethyl] oleoylamide], for which, in data set [1], the “ΔRM solvent 1” value is reported as −0.984, the “RM solvent 1” value is listed as −0.231, the “RF solvent 1” value amounted to 0.63 and the “ΔRM solvent 2” value is −0.365. In data set [1], the “RM solvent 2” value is recorded as −0.347 and the “RF solvent 2” value worked out at 0.69. Further, in data set [2], the “solubility in organic solvents: ethanol” value is listed as 10 mg/ml in ethanol, and the solubility in water result is given as “slightly soluble”.

For `CCCCCCCCCCCCCCCC(=O)NCCOC(=O)OCC(C)C` [Example 2, N-[2-(isobutyloxycarbonyl)oxyethyl] hexadecanamide], in data set [1], the “ΔRM solvent 1” value was −1.076, the “RM solvent 1” value is on record as −0.288, the “RF solvent 1” value is 0.66 and the “ΔRM solvent 2” value was −0.467. In addition, in data set [1], the “RM solvent 2” value is on record as −0.432 and the “RF solvent 2” value is on record as 0.73. Further, the solubility in data set [5] (setting [6]) worked out at 10000 µg/mL (≈ 25 mM). Besides, the solubility in data set [5] (setting [7]) amounted to 1000 µg/mL (≈ 2.5 mM). For the same compound, the solubility in data set [5] (setting [8]) was found to be 10000 µg/mL (≈ 25 mM). Further, the solubility in water entry in data set [2] is given as “slightly soluble”.
